From ChEMBL document CHEMBL1909294, “Translating clinical findings into knowledge in drug safety evaluation--drug induced liver injury prediction system (DILIps)” (PLoS Comput Biol, 2011)

Legend:
[1] = test system: Hepatotoxicity;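 as to HepSE cholecystitis: Cholecystitis-related hepatic side effect score drawn from the DILIps (drug-induced liver injury prediction) training data set; call rule not given here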;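 as to HepSE cholelithiasis: hepatic side effect score for cholelithiasis, drawn from the DILIps training data for predicting drug-induced liver injury; call rule not given here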;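 as to HepSE cirrhosis: cirrhosis hepatic side effect score taken from the DILIps (drug-induced liver injury prediction) training set; call rule not given here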;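 as to HepSE hepatitis: Hepatitis-related hepatic side effect score taken from the training data of DILIps, a prediction system for drug-induced liver injury; call rule not given here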;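 as to HepSE hepatomegaly: hepatic side effect score for hepatomegaly, taken from the training set of the DILIps drug-induced liver injury prediction system; call rule not given here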;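 as to HepSE jaundice: Jaundice-related hepatic side-effect score drawn from the training data of the DILIps (drug-induced liver injury prediction system); call rule not given here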
[2] = test system: Hepatotoxicity; remark: listed apart in the source;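 as to HepSE cholecystitis: Cholecystitis-related hepatic side effect score drawn from the DILIps (drug-induced liver injury prediction) training data set; call rule not given here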;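 as to HepSE cholelithiasis: hepatic side effect score for cholelithiasis, drawn from the DILIps training data for predicting drug-induced liver injury; call rule not given here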;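 as to HepSE cirrhosis: cirrhosis hepatic side effect score taken from the DILIps (drug-induced liver injury prediction) training set; call rule not given here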;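 as to HepSE hepatitis: Hepatitis-related hepatic side effect score taken from the training data of DILIps, a prediction system for drug-induced liver injury; call rule not given here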;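 as to HepSE hepatomegaly: hepatic side effect score for hepatomegaly, taken from the training set of the DILIps drug-induced liver injury prediction system; call rule not given here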;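 as to HepSE jaundice: Jaundice-related hepatic side-effect score drawn from the training data of the DILIps (drug-induced liver injury prediction system); call rule not given here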
[3] = test system: Hepatotoxicity; remark: listed apart in the source;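 as to HepSE cholecystitis: Cholecystitis-related hepatic side effect score drawn from the DILIps (drug-induced liver injury prediction) training data set; call rule not given here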;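 as to HepSE cholelithiasis: hepatic side effect score for cholelithiasis, drawn from the DILIps training data for predicting drug-induced liver injury; call rule not given here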;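 as to HepSE cirrhosis: cirrhosis hepatic side effect score taken from the DILIps (drug-induced liver injury prediction) training set; call rule not given here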;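 as to HepSE hepatitis: Hepatitis-related hepatic side effect score taken from the training data of DILIps, a prediction system for drug-induced liver injury; call rule not given here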;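 as to HepSE hepatomegaly: hepatic side effect score for hepatomegaly, taken from the training set of the DILIps drug-induced liver injury prediction system; call rule not given here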;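 as to HepSE jaundice: Jaundice-related hepatic side-effect score drawn from the training data of the DILIps (drug-induced liver injury prediction system); call rule not given here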
[4] = test system: Hepatotoxicity; remark: listed apart in the source;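 as to HepSE cholelithiasis: hepatic side effect score for cholelithiasis, drawn from the DILIps training data for predicting drug-induced liver injury; call rule not given here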;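 as to HepSE cirrhosis: cirrhosis hepatic side effect score taken from the DILIps (drug-induced liver injury prediction) training set; call rule not given here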;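 as to HepSE hepatitis: Hepatitis-related hepatic side effect score taken from the training data of DILIps, a prediction system for drug-induced liver injury; call rule not given here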;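 as to HepSE hepatomegaly: hepatic side effect score for hepatomegaly, taken from the training set of the DILIps drug-induced liver injury prediction system; call rule not given here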;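 as to HepSE jaundice: Jaundice-related hepatic side-effect score drawn from the training data of the DILIps (drug-induced liver injury prediction system); call rule not given here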
[5] = test system: Hepatotoxicity; remark: listed apart in the source
[6] = test system: Hepatotoxicity; remark: listed apart in the source
[7] = test system: Hepatotoxicity; remark: listed apart in the source
[8] = test system: Hepatotoxicity; remark: listed apart in the source
[9] = test system: Hepatotoxicity; remark: listed apart in the source
[10] = test system: Hepatotoxicity; remark: listed apart in the source
[11] = test system: Hepatotoxicity; remark: listed apart in the source
[12] = test system: Hepatotoxicity; remark: listed apart in the source
[13] = test system: Hepatotoxicity; remark: listed apart in the source
[14] = test system: Hepatotoxicity; remark: listed apart in the source

Compound	HepSE_cholelithiasis [1]	HepSE_jaundice [2]	HepSE_cirrhosis [3]	HepSE_hepatomegaly [4]	HepSE_hepatitis [5]	HepSE_liver fatty [6]	HepSE_cholecystitis [7]	HepSE_Combined Scores [8]	HepSE_hepatic failure [9]	HepSE_liver function tests abnormal [10]	HepSE_bilirubinemia [11]	HepSE_liver disease [12]	HepSE_hepatic necrosis [13]	HepSE_elevated liver function tests [14]	also measured
O=C1CC2(CCCC2)CC(=O)N1CCCCN1CCN(c2ncccn2)CC1 [BUSPIRONE]	0	0	0	0	0	0	0	0	0	0	0	0	0	0	
O=C1c2cccc3c2[C@H](CCC3)CN1[C@@H]1CN2CCC1CC2 [PALONOSETRON]	0	0	0	0	0	0	0	0	0	0	0	0	0	0	
CO/N=C(\C(=O)N[C@@H]1C(=O)N2C(C(=O)O)=C(COC(N)=O)CS[C@H]12)c1ccco1 [CEFUROXIME]	0	1	0	0	1	0	0	2	0	0	0	0	0	0	
CC(CN1c2ccccc2Sc2ccccc21)N(C)C (stereo unspecified) [PROMETHAZINE]	0	1	0	0	0	0	0	1	0	0	0	0	0	0	
c1ccc(CC2=NCCN2)cc1 [TOLAZOLINE]	0	0	0	0	1	0	0	1	0	0	0	0	0	0	
CC1CNc2c(cccc2S(=O)(=O)N[C@@H](CCCNC(=N)N)C(=O)N2CC[C@@H](C)C[C@@H]2C(=O)O)C1 (stereo partly specified) [ARGATROBAN]	0	0	0	0	0	0	0	0	0	0	0	0	0	0	
CN(C)C(=N)N=C(N)N [METFORMIN]															HepSE_cholelithiasis ([1]; Liver): 0; HepSE_jaundice ([2]; Liver): 0; HepSE_cirrhosis ([3]; Liver): 0; HepSE_hepatomegaly ([4]; Liver): 0; HepSE_hepatitis ([5]; Liver): 1; HepSE_liver fatty ([6]; Liver): 0; HepSE_cholecystitis ([7]; Liver): 0; HepSE_Combined Scores ([8]; Liver): 2; HepSE_hepatic failure ([9]; Liver): 0; HepSE_liver function tests abnormal ([10]; Liver): 1; HepSE_bilirubinemia ([11]; Liver): 0; HepSE_liver disease ([12]; Liver): 0; HepSE_hepatic necrosis ([13]; Liver): 0; HepSE_elevated liver function tests ([14]; Liver): 0
CCCCC[C@H](O)/C=C/[C@H]1[C@H](O)CC(=O)[C@@H]1C/C=C\CCCC(=O)O [DINOPROSTONE]	0	0	0	0	0	0	0	0	0	0	0	0	0	0	
COCCCC/C(=N\OCCN)c1ccc(C(F)(F)F)cc1 [FLUVOXAMINE]	1	1	0	0	1	0	1	5	0	1	0	0	0	0	
